Reference: patent US5962415A, “Compositions comprising a peptide inhibitor of nuclear protein translocation and an immunosuppressant and methods of use thereof” (Bristol-Myers Squibb Co., priority 1998, dated 1999)

What was measured:
70Z/3 murine B-cells = test: LPS-induced CD40 expression in 70Z/3 cells; type: cell-based; details: 3 hr treatment prior to LPS, FIG. 5
Description: (§1) Expression of κ Ig, CD45, CD40, and the interleukin-2 receptor was assayed using standard enzyme-linked immunosorbent assays ("ELISAs") (see, Coligan et al. (eds.) (1991) Current Protocols in Immunology, Wiley & Sons, p. 2.10 or by FACS staining to measure cell-surface markers as described in Raff (1970) Immunology 19:637). Antibodies form cell surface markers were obtained from Pharmingen Co.
70Z/3 murine B-cells were treated with the SV40MEM polypeptide for 3 hr prior to activation with LPS. After activation with LPS, there was an approximately four-fold increase in CD40 expression above basal levels.

[1] = system: 70Z/3 murine leukemia pre-B cells; test: LPS-stimulated surface antigen expression (κ Ig light chain, IL-2 receptor, CD45) in 70Z/3 cells; type: cell-based
Description: as §1
The effect of the SV40MEM polypeptide was compared with two additional polypeptides, […] (SEQ ID NO:2) (the "HIV-1MEM" polypeptide), which is composed of the membrane translocation domain of FGF flanked by the NLS from the HIV-1 matrix protein and […] (SEQ ID NO:3) (the "C-MYCMEM" polypeptide), which contains the NLS from the human c-myc oncoprotein (Chelsky et al. (1989), supra, and Dang et al. (1988), supra) using murine 70Z/3 pre-B cells.
Murine 70Z/3 cells (ATCC TlD-158) are a model cell line for analyzing the effects of compounds on B-cell differentiation. In response to S. typhosa LPS (Difco) or γ-interferon, these cells differentiate from surface κ immunoglobulin negative to κ Ig positive.
[…] of: (1) a peptide containing only the FGF signal sequence AAVALLPAVLLALLAP (SEQ ID NO:4) (the "MEM" peptide); (2) a polypeptide having the FGF signal sequence and the NLS of NF-κB p50 on the carboxy terminus of the signal sequence, namely, the NF-κBMEM polypeptide; (3) the SV40MEM polypeptide comprised of L-amino acids; or (4) the SV40MEM polypeptide comprised of D-amino acids. The cells were then incubated with LPS as described in Example 2 and assayed for expression of κ light chain expression.

Sequence: PKKKRKVAAVALLPAVLLALLAPKKKRKVC [SV40MEM, FGF signal peptide hydrophobic region flanked by SV40 large T antigen NLS]
- LPS-induced up-regulation of CD40 (70Z/3 murine B-cells): inhibited this up-regulation of CD40
- expression of CD45 ([1]; LPS-stimulated, FIG. 1A): no effect
- expression of the interleukin-2 receptor ([1]; LPS-stimulated, FIG. 1A): no effect
- inhibition of κ light chain expression ([1]; response to S. typhosa LPS, 1-hr pretreatment, FIG. 1A): 75-80%
- effect of increasing LPS concentration on the inhibitory effect ([1]; κ Ig light chain production, FIG. 1C): can be overcome by increasing the concentration of LPS
